From patent US5166208A, “Fredericamycin A derivatives” (Boston College, priority 1991, dated 1992)
Converted amounts (≈) assume the structure as drawn. Counter-ions that a name gives are not always drawn.

Experiments:
murine melanoma (B16) = test: In vitro microdilution inhibition, B16; assay type: cell-based; conditions: Mus musculus; B16, 72 hours, 50% of cells killed
Text: (§1) As shown in Table III the compounds of the present invention exert an in vitro antitumor effect. The following cells lines were employed: human lung (A549); resistant human lung with low topo II activity (A549-VP); murine melanoma (B16); human colon tumor (HCT116); human colon tumor with elevated p170 levels (HCTVM); human colon tumor with low topo II activity (HCTVP); and another human colon carcinoma cell line (Moser). In the Table, the designation "NT" indicates the compound was not tested against the specified cell line. The cell lines were maintained in continuous culture at 37°, 5% CO2 and high humidity. Cells were harvested in log phase growth and suspended at concentration of 25,000 cells/mL. A […] aliquot was then added to each well (i.e., 3,750 cells per well) of a 96-well flat bottom plate and the cells were allowed to attach over a 24 hour period. After this 24 hour incubation, a 50 μL sample of the specified compound was added to the first (top) well of each column, and the remaining wells of each column serially diluted, 1:4, and allowed to incubate for 72 hours at 37° C., 5% CO2 and high humidity. Following incubation, 50 μL of freshly prepared stain solution was added to each well. After a 3 hour incubation at room temperature, absorbance was read at 450 nm on a microplate reader to determine the compound concentration at which 50% of the cells were killed, such concentration referred to as the "IC50 ".

[1] = tested on: human colon tumor (HCT116); test: In vitro microdilution inhibition, HCT116; assay type: cell-based; conditions: HCT-116, 72 hours, 50% of cells killed
Text: as §1

p388 murine leukemia = test: In vivo activity against p388 murine leukemia in an acute mouse model; conditions: CDF1 (female only); for AWC (average weight change per mouse): before treatment to day five
Description: CDF1 mice of both sexes weighing between 16 and 25 gm. were used, with a 2 gm. weight range and same sex and source used per experiment. BDF1 mice also were used with the same weight, sex and source parameters. Control and test animals were injected interperitoneally with suspension of 1×10^6 p388 murine leukemia cells (0.5 mL dose) on day 0. Groups of 4-6 mice were used for each dosage amount they were treated with 5 doses on day one. A group of ten saline treated control mice was included in each set of experiments. A 30 day protocol was employed with mean survival time in days being determined for each group of mice with the number of survivors at the end of the 30 day period being noted. The mice were weighed before treatment and again on day five. The values listed for average weight change (AWC) is the average weight change per mouse at the specified dose. The change in weight was taken as a measure of drug toxicity. A loss in weight of up to 2 grams is not considered excessive. The results were determined in terms of % T/C which is the ratio of the mean survival time of the treated group to the mean survival time of the saline treated group times 100.

human lung (A549) = test: In vitro microdilution inhibition, human lung A549; assay type: cell-based; conditions: A549, 72 hours, 50% of cells killed
Text: as §1

[2] = tested on: resistant human lung with low topo II activity (A549-VP); test: In vitro microdilution inhibition, resistant human lung A549-VP; assay type: cell-based; conditions: A549VP, 72 hours, 50% of cells killed
Text: as §1

[3] = tested on: human colon tumor with elevated p170 levels (HCTVM); test: In vitro microdilution inhibition, HCTVM; assay type: cell-based; conditions: 72 hours, 50% of cells killed
Text: as §1

[4] = tested on: human colon tumor with low topo II activity (HCTVP); test: In vitro microdilution inhibition, HCTVP; assay type: cell-based; conditions: 72 hours, 50% of cells killed
Text: as §1

## COCOc1cccc2c1C1(CC2)C(=O)c2c(O)c3c(c(O)c2C1=O)C(=O)C(Nc1ccc(O)cc1)=CC3=O (centres unmarked) [Example 21, 2',3'-Dihydro-7'-(methoxymethoxy)-1H-indene-1'-spiro-2-[6-(4-hydroxyanilino)-4,9-dihydroxy-2H-benz[f]indene-1,3,5,8-tetrone]]
Murine melanoma (B16)
  IC50: 18.7 µg/mL (≈ 35.5 µM)
[1]
  IC50: 6.79 µg/mL (≈ 12.9 µM)

## COCOc1cccc2c1C1(CC2)C(=O)c2c(O)c3c(c(O)c2C1=O)C(=O)C(SCCO)=CC3=O (centres unmarked) [Example 33, 2',3'-Dihydro-7'-(methoxymethoxy)-1H-indene-1'-spiro-2-[4,9-dihydroxy-6-(2-hydroxyethylmercapto)-2H-benz[f]indene-1,3,5,8-tetrone]]
Murine melanoma (B16)
  IC50: 107 µg/mL (≈ 216 µM)
[1]
  IC50: 5.08 µg/mL (≈ 10.2 µM)

## CCCCCc1cc2cc3c(c(OCOC)c2c(OC)n1)C1(CC3)C(=O)c2c(O)c3c(c(O)c2C1=O)C(=O)C(NCC)=CC3=O (centres unmarked) [Example 22, 6',7'-Dihydro-4,9-dihydroxy-6-ethylamino-1'-methoxy-9'-(methoxymethoxy)-3'-(n-pentyl)-spiro[2H-benz[f]-indene-2,8'[8H]cyclopent[g]isoquinoline]-1,3,5,8-tetrone]
p388 murine leukemia; 3.3 mg/kg
  AWC (average weight change per mouse): 1.5
p388 murine leukemia; 10 mg/kg
  AWC (average weight change per mouse): 1.0
p388 murine leukemia; 30 mg/kg
  AWC (average weight change per mouse): -0.2
p388 murine leukemia; Mus musculus, P388, 720 h, 3.3 mg/kg, read-out: % T/C (mean survival time treated/control)
  response vs control in vivo at 3.3 mg/kg: 95%
p388 murine leukemia; Mus musculus, P388, 720 h, 10 mg/kg, read-out: % T/C (mean survival time treated/control)
  response vs control in vivo at 10 mg/kg: 105%
p388 murine leukemia; Mus musculus, P388, 720 h, 30 mg/kg, read-out: % T/C (mean survival time treated/control)
  response vs control in vivo at 30 mg/kg: 135%

## COCOc1cccc2c1C1(CC2)C(=O)c2c(O)c3c(c(O)c2C1=O)C(=O)C(NCC(F)(F)F)=CC3=O (centres unmarked) [Example 13, 2',3'-Dihydro-6-(2,2,2-trifluoroethylamino)-7'-(methoxymethoxy)-1H-indene-1'-spiro-2-[4,9-dihydroxy-2H-benz[f]-indene-1,3,5,8-tetrone]]
Human lung (A549)
  IC50: < 0.03 µg/mL
[2]
  IC50: 0.05 µg/mL (≈ 0.0966 µM)
Murine melanoma (B16)
  IC50: 0.03 µg/mL (≈ 0.058 µM)
[1]
  IC50: 0.03 µg/mL (≈ 0.058 µM)
[3]
  IC50: 0.03 µg/mL (≈ 0.058 µM)
[4]
  IC50: 0.04 µg/mL (≈ 0.0773 µM)

## COCOc1cccc2c1C1(CC2)C(=O)c2c(O)c3c(c(O)c2C1=O)C(=O)C(OC)=CC3=O (centres unmarked) [Example 5, 2',3'-Dihydro-7'-(methoxymethoxy)-6-methoxy-1H-indene-1'-spiro-2-[4,9-dihydroxy-2H-benz[f]indene-1,3,5,8-tetrone]]
Human lung (A549)
  IC50: 0.4 µg/mL (≈ 0.888 µM)
[2]
  IC50: 1.1 µg/mL (≈ 2.44 µM)
Murine melanoma (B16)
  IC50: 0.7 µg/mL (≈ 1.55 µM)
[1]
  IC50: 0.09 µg/mL (≈ 0.2 µM)
[3]
  IC50: 0.2 µg/mL (≈ 0.444 µM)
[4]
  IC50: 0.2 µg/mL (≈ 0.444 µM)

## COC1=CC(=O)c2c(O)c3c(c(O)c2C1=O)C(=O)C1(CCc2cccc(O)c21)C3=O (centres unmarked) [Example 6, 2',3'-Dihydro-7'-hydroxy-6-methoxy-1H-indene-1'-spiro-2-[4,9-dihydroxy-2H-benz[f]indene-1,3,5,8-tetrone]]
Human lung (A549)
  IC50: 4.9 µg/mL (≈ 12.1 µM)
[2]
  IC50: 6.4 µg/mL (≈ 15.8 µM)
Murine melanoma (B16)
  IC50: 5.2 µg/mL (≈ 12.8 µM)
[1]
  IC50: 1.6 µg/mL (≈ 3.94 µM)
[3]
  IC50: 1.7 µg/mL (≈ 4.18 µM)
[4]
  IC50: 3.5 µg/mL (≈ 8.61 µM)

## COCOc1cccc2c1C1(CC2)C(=O)c2c(O)c3c(c(O)c2C1=O)C(=O)C(N)=CC3=O (centres unmarked) [Example 14, 6-amino-2',3'-dihydro-7'-(methoxymethoxy)-1H-indene-1'-spiro-2-[4,9-dihydroxy-2H-benz[f]-indene-1,3,5,8-tetrone]]
Human lung (A549)
  IC50: < 0.03 µg/mL
[2]
  IC50: 0.03 µg/mL (≈ 0.0689 µM)
Murine melanoma (B16)
  IC50: 0.03 µg/mL (≈ 0.0689 µM)
[1]
  IC50: 0.03 µg/mL (≈ 0.0689 µM)
[3]
  IC50: 0.03 µg/mL (≈ 0.0689 µM)
[4]
  IC50: 0.03 µg/mL (≈ 0.0689 µM)

## COCOc1cccc2c1C1(CC2)C(=O)c2c(O)c3c(c(O)c2C1=O)C(=O)C(NCC(O)c1ccccc1)=CC3=O (centres unmarked) [Example 17, 2',3'-Dihydro-7'-(methoxymethoxy)-1H-indene-1'-spiro-2-[6-(2-hydroxy-2-phenyl-ethylamino)-4,9-dihydroxy-2H-benz[f]indene-1,3,5,8-tetrone]]
Murine melanoma (B16)
  IC50: 15 µg/mL (≈ 27 µM)
[1]
  IC50: 1.47 µg/mL (≈ 2.65 µM)

## O=C1C=CC(=O)c2c(O)c3c(c(O)c21)C(=O)C1(CCc2ccccc21)C3=O [Example 4, 2',3'-Dihydro-1H-indene-1'-spiro-2-[4,9-dihydroxy-2H-benz[f]-indene-1,3,5,8-tetrone]]
Human lung (A549)
  IC50: 1.5 µg/mL (≈ 4.16 µM)
[2]
  IC50: 2.3 µg/mL (≈ 6.38 µM)
Murine melanoma (B16)
  IC50: 1 µg/mL (≈ 2.78 µM)
[1]
  IC50: 0.3 µg/mL (≈ 0.833 µM)
[3]
  IC50: 0.3 µg/mL (≈ 0.833 µM)
[4]
  IC50: 0.4 µg/mL (≈ 1.11 µM)

## CCSC1=C(SCC)C(=O)c2c(O)c3c(c(O)c2C1=O)C(=O)C1(CCc2cccc(OCOC)c21)C3=O [Example 30]
Human lung (A549)
  IC50: 7 µg/mL (≈ 12.9 µM)
[2]
  IC50: > 16 µg/mL
Murine melanoma (B16)
  IC50: 1.8 µg/mL (≈ 3.33 µM)
[1]
  IC50: 1.2 µg/mL (≈ 2.22 µM)
[3]
  IC50: 3 µg/mL (≈ 5.55 µM)
[4]
  IC50: 2.2 µg/mL (≈ 4.07 µM)

## COCOc1cccc2c1C1(CC2)C(=O)c2c(O)c3c(c(O)c2C1=O)C(=O)C(Nc1ccccc1)=CC3=O (centres unmarked) [Example 18, 2',3'-Dihydro-7'-(methoxymethoxy)-1H-indene-1,-spiro-2-[6-(phenylamino)-4,9-dihydroxy-2H-benz[f]indene-1,3,5,8-tetrone]]
Human lung (A549)
  IC50: 0.08 µg/mL (≈ 0.156 µM)
[2]
  IC50: 0.06 µg/mL (≈ 0.117 µM)
Murine melanoma (B16)
  IC50: 0.08 µg/mL (≈ 0.156 µM)
[1]
  IC50: 0.09 µg/mL (≈ 0.176 µM)
[3]
  IC50: 0.11 µg/mL (≈ 0.215 µM)
[4]
  IC50: 0.07 µg/mL (≈ 0.137 µM)

## NCCSSCCNC1=CC(=O)c2c(O)c3c(c(O)c2C1=O)C(=O)C1(CCc2cccc(O)c21)C3=O (centres unmarked) [Example 35, 2',3'-Dihydro-7'-hydroxy-1H-indene-1'-spiro-2-[4,9-dihydroxy-6-(2(2-aminoethyldithio)ethylamino)-2H-benz[f]indene-1,3,5,8-tetrone] hydrochloride]
Murine melanoma (B16)
  IC50: 24 µg/mL
[4]
  IC50: 22 µg/mL

## COCOc1cccc2c1C1(CC2)C(=O)c2c(O)c3c(c(O)c2C1=O)C(=O)C(NC1C(=O)N2C1SC(C)(C)C2C(=O)O)=CC3=O (centres unmarked) [Example 27, 6-((2',3'-dihydro-7'-(methoxymethoxy)-1H-indene-1'-spiro-[4,9-dihydroxy-2H-benz[f]indene-1,3,5,8-tetrone]-6-yl)amino)penicillanic acid]
Murine melanoma (B16)
  IC50: 0.24 µg/mL (≈ 0.378 µM)
[4]
  IC50: 0.22 µg/mL (≈ 0.347 µM)

## COCOc1cccc2c1C1(CC2)C(=O)c2c(O)c3c(c(O)c2C1=O)C(=O)C(Nc1ccc(SSc2ccc(N)cc2)cc1)=CC3=O (centres unmarked) [Example 36, 2',3'-Dihydro-7'-(methoxymethoxy)-1H-indene-1'-spiro-2-[4,9-dihydroxy-6-(4-(4-aminophenyldithio)phenylamino)-2H-benz[f]indene-1,3,5,8-tetrone]]
Murine melanoma (B16)
  IC50: 458 µg/mL (≈ 687 µM)
[1]
  IC50: > 500 µg/mL

## N=C(N)NCCC[C@H](NC1=CC(=O)c2c(O)c3c(c(O)c2C1=O)C(=O)C1(CCc2cccc(O)c21)C3=O)C(=O)O (some centres unmarked) [Example 28]
Murine melanoma (B16)
  IC50: > 500 µg/mL
[1]
  IC50: 71 µg/mL (≈ 129 µM)

## COCOc1cccc2c1C1(CC2)C(=O)c2c(O)c3c(c(O)c2C1=O)C(=O)C(Nc1ccc(C(=O)O)cc1)=CC3=O (centres unmarked) [Example 19, 2',3'-Dihydro-7'-(methoxymethoxy)-1H-indene-1'-spiro-2-[6-(4-carboxyanilino)-4,9-dihydroxy-2H-benz[f]indene-1,3,5,8-tetrone]]
Murine melanoma (B16)
  IC50: 27 µg/mL (≈ 48.6 µM)
[1]
  IC50: 322 µg/mL (≈ 580 µM)

## CCNC1=CC(=O)c2c(O)c3c(c(O)c2C1=O)C(=O)C1(CCc2cccc(OCOC)c21)C3=O (centres unmarked) [Example 11, 2',3'-Dihydro-6-ethylamino-7'-(methoxymethoxy)-1H-indene-1'-spiro-2-[4,9-dihydroxy-2H-benz[f]-indene-1,3,5,8-tetrone]]
Human lung (A549)
  IC50: < 0.03 µg/mL
[2]
  IC50: 0.03 µg/mL (≈ 0.0647 µM)
Murine melanoma (B16)
  IC50: 0.03 µg/mL (≈ 0.0647 µM)
[1]
  IC50: 0.03 µg/mL (≈ 0.0647 µM)
[3]
  IC50: 0.03 µg/mL (≈ 0.0647 µM)
[4]
  IC50: 0.03 µg/mL (≈ 0.0647 µM)

## COCOc1cccc2c1C1(CC2)C(=O)c2c(O)c3c(c(O)c2C1=O)C(=O)C(Sc1ccccc1)=CC3=O (centres unmarked) [Example 34, 2',3'-Dihydro-7'-(methoxymethoxy)-1H-indene-1'-spiro-2-[4,9-dihydroxy-6-(phenylmercapto)-2H-benz[f]indene-1,3,5,8-tetrone]]
Murine melanoma (B16)
  IC50: 110 µg/mL (≈ 208 µM)
[1]
  IC50: 78 µg/mL (≈ 148 µM)

## COCOc1cccc2c1C1(CC2)C(=O)c2c(O)c3c(c(O)c2C1=O)C(=O)C(N[C@@H](CC(N)=O)C(=O)O)=CC3=O (some centres unmarked) [Example 26, 2',3'-Dihydro-7'-(methoxymethoxy)-1H-indene-1'-spiro-2-4,9-dihydroxy-6-(1-carboxy-2-carbamoylethylamino)-2H-benz[f]indene-1,3,5,8-tetrone]
Murine melanoma (B16)
  IC50: 9.3 µg/mL (≈ 16.9 µM)
[1]
  IC50: 1.23 µg/mL (≈ 2.23 µM)
